Experimental data published in ChEMBL document CHEMBL3885881, “DrugMatrix”.

Species: Rattus norvegicus
Experiment: DrugMatrix - Regimen: Daily Repeat
Type: toxicity, organism-based, Sprague-Dawley
Set-up: regimen Daily Repeat, gender Male, age 6-8 weeks
Conditions: in vivo, iv, vehicle 100 % SALINE; for ABSOLUTE BASOPHIL / ABSOLUTE EOSINOPHIL / ABSOLUTE LYMPHOCYTE / ABSOLUTE MONOCYTE / ABSOLUTE SEGMENTED NEUTROPHIL / BASOPHIL / EOSINOPHIL / ERYTHROCYTE COUNT / HEMATOCRIT / HEMOGLOBIN / LYMPHOCYTE / MEAN CORPUSCULAR HEMOGLOBIN / MEAN CORPUSCULAR HEMOGLOBIN CONCENTRATION / MONOCYTE / NEUTROPHIL / NUCLEATED RED BLOOD CELLS / PLATELET COUNT: tissue Blood; for ALANINE AMINOTRANSFERASE / ALBUMIN / ALKALINE PHOSPHATASE / ASPARTATE AMINOTRANSFERASE / BLOOD UREA NITROGEN / CARBON DIOXIDE / CHLORIDE / CHOLESTEROL / CREATINE PHOSPHOKINASE / CREATININE / GLUCOSE / LIPASE / PHOSPHORUS / POTASSIUM / SODIUM / TOTAL BILIRUBIN / TOTAL PROTEIN / URIC ACID: tissue Plasma
[1] = 0 mg/kg, 72 h, dose level Control, time 3 day
[2] = 0 mg/kg, 120 h, dose level Control, time 5 day
[3] = 5 mg/kg, 72 h, dose level High, time 3 day

CCc1c2c(nc3ccc(OC(=O)N4CCC(N5CCCCC5)CC4)cc13)-c1cc3c(c(=O)n1C2)COC(=O)[C@]3(O)CC [IRINOTECAN]
ABSOLUTE BASOPHIL [1]: 0 CELLS/uL
ABSOLUTE EOSINOPHIL [1]: 23.17 CELLS/uL
ABSOLUTE LYMPHOCYTE [1]: 12448.83 CELLS/uL
ABSOLUTE MONOCYTE [1]: 259.5 CELLS/uL
ABSOLUTE SEGMENTED NEUTROPHIL [1]: 1635.17 CELLS/uL
BASOPHIL [1]: 0%
EOSINOPHIL [1]: 0.17%
ERYTHROCYTE COUNT [1]: 5.35 x10E6/uL
HEMATOCRIT [1]: 34.85%
HEMOGLOBIN [1]: 13.72 G/DL
LYMPHOCYTE [1]: 86.5%
MEAN CORPUSCULAR HEMOGLOBIN [1]: 25.67 pg
MEAN CORPUSCULAR HEMOGLOBIN CONCENTRATION [1]: 39.38 G/DL
MONOCYTE [1]: 1.83%
NEUTROPHIL [1]: 11.5%
NUCLEATED RED BLOOD CELLS [1]: 0 /100WBC
PLATELET COUNT [1]: 1248.67 x10E3/uL
ALANINE AMINOTRANSFERASE [1]: 56.5 u/L
ALBUMIN [1]: 4.27 G/DL
ALKALINE PHOSPHATASE [1]: 334 u/L
ASPARTATE AMINOTRANSFERASE [1]: 85.5 u/L
BLOOD UREA NITROGEN [1]: 16.33 mg/dL
CARBON DIOXIDE [1]: 26.5 mmol/L
CHLORIDE [1]: 100.17 MEQ/L
CHOLESTEROL [1]: 70.33 mg/dL
CREATINE PHOSPHOKINASE [1]: 339.5 u/L
CREATININE [1]: 0.18 mg/dL
GLUCOSE [1]: 155.17 mg/dL
LIPASE [1]: 9.5 u/L
PHOSPHORUS [1]: 13.55 mg/dL
POTASSIUM [1]: 6.68 MEQ/L
SODIUM [1]: 143.87 MEQ/L
TOTAL BILIRUBIN [1]: 0.2 mg/dL
TOTAL PROTEIN [1]: 5.98 G/DL
URIC ACID [1]: 1.53 mg/dL
ABSOLUTE BASOPHIL [2]: 0 CELLS/uL
ABSOLUTE EOSINOPHIL [2]: 16.17 CELLS/uL
ABSOLUTE LYMPHOCYTE [2]: 10653.67 CELLS/uL
ABSOLUTE MONOCYTE [2]: 17.17 CELLS/uL
ABSOLUTE SEGMENTED NEUTROPHIL [2]: 746.33 CELLS/uL
BASOPHIL [2]: 0%
EOSINOPHIL [2]: 0.17%
ERYTHROCYTE COUNT [2]: 5.88 x10E6/uL
HEMATOCRIT [2]: 36.68%
HEMOGLOBIN [2]: 14.6 G/DL
LYMPHOCYTE [2]: 91.83%
MEAN CORPUSCULAR HEMOGLOBIN [2]: 24.85 pg
MEAN CORPUSCULAR HEMOGLOBIN CONCENTRATION [2]: 39.8 G/DL
MONOCYTE [2]: 0.17%
NEUTROPHIL [2]: 7.83%
NUCLEATED RED BLOOD CELLS [2]: 0 /100WBC
PLATELET COUNT [2]: 1219.5 x10E3/uL
ALANINE AMINOTRANSFERASE [2]: 45.5 u/L
ALBUMIN [2]: 4.23 G/DL
ALKALINE PHOSPHATASE [2]: 330.17 u/L
ASPARTATE AMINOTRANSFERASE [2]: 93.33 u/L
BLOOD UREA NITROGEN [2]: 18 mg/dL
CARBON DIOXIDE [2]: 25.5 mmol/L
CHLORIDE [2]: 96.33 MEQ/L
CHOLESTEROL [2]: 73.5 mg/dL
CREATINE PHOSPHOKINASE [2]: 434 u/L
CREATININE [2]: 0.2 mg/dL
GLUCOSE [2]: 148.83 mg/dL
LIPASE [2]: 10 u/L
PHOSPHORUS [2]: 12.63 mg/dL
POTASSIUM [2]: 6.66 MEQ/L
SODIUM [2]: 139.78 MEQ/L
TOTAL BILIRUBIN [2]: 0.15 mg/dL
TOTAL PROTEIN [2]: 6.1 G/DL
URIC ACID [2]: 2.02 mg/dL
ABSOLUTE BASOPHIL [3]: 0 CELLS/uL
ABSOLUTE EOSINOPHIL [3]: 80.67 CELLS/uL
ABSOLUTE LYMPHOCYTE [3]: 9024 CELLS/uL
ABSOLUTE MONOCYTE [3]: 170 CELLS/uL
ABSOLUTE SEGMENTED NEUTROPHIL [3]: 658.67 CELLS/uL
BASOPHIL [3]: 0%
EOSINOPHIL [3]: 0.67%
ERYTHROCYTE COUNT [3]: 5.4 x10E6/uL
HEMATOCRIT [3]: 34.93%
HEMOGLOBIN [3]: 13.9 G/DL
LYMPHOCYTE [3]: 90.67%
MEAN CORPUSCULAR HEMOGLOBIN [3]: 25.73 pg
MEAN CORPUSCULAR HEMOGLOBIN CONCENTRATION [3]: 39.77 G/DL
MONOCYTE [3]: 1.67%
NEUTROPHIL [3]: 7%
NUCLEATED RED BLOOD CELLS [3]: 0 /100WBC
PLATELET COUNT [3]: 1386.67 x10E3/uL
ALANINE AMINOTRANSFERASE [3]: 49 u/L
ALBUMIN [3]: 4.27 G/DL
ALKALINE PHOSPHATASE [3]: 402.67 u/L
ASPARTATE AMINOTRANSFERASE [3]: 93 u/L
BLOOD UREA NITROGEN [3]: 14.67 mg/dL
CARBON DIOXIDE [3]: 26.67 mmol/L
CHLORIDE [3]: 102.67 MEQ/L
CHOLESTEROL [3]: 65 mg/dL
CREATINE PHOSPHOKINASE [3]: 421.33 u/L
CREATININE [3]: 0.18 mg/dL
GLUCOSE [3]: 152.67 mg/dL
LIPASE [3]: 10 u/L
PHOSPHORUS [3]: 14.3 mg/dL
POTASSIUM [3]: 6.6 MEQ/L
SODIUM [3]: 145.83 MEQ/L
TOTAL BILIRUBIN [3]: 0.17 mg/dL
TOTAL PROTEIN [3]: 5.8 G/DL
